Measurements: publication PMC8759733 (Journal of Enzyme Inhibition and Medicinal Chemistry, 2021)
Entries after “also recorded” stand apart in the source; their conditions may differ.

These molecules were tested against Acetylcholinesterase (AChE) (Electrophorus electricus, UniProt O42275) (assay: Cholinesterase inhibition activity assay). Details: not given.
Format: biochemical

Chain of Acetylcholinesterase (AChE) (O42275 24-633): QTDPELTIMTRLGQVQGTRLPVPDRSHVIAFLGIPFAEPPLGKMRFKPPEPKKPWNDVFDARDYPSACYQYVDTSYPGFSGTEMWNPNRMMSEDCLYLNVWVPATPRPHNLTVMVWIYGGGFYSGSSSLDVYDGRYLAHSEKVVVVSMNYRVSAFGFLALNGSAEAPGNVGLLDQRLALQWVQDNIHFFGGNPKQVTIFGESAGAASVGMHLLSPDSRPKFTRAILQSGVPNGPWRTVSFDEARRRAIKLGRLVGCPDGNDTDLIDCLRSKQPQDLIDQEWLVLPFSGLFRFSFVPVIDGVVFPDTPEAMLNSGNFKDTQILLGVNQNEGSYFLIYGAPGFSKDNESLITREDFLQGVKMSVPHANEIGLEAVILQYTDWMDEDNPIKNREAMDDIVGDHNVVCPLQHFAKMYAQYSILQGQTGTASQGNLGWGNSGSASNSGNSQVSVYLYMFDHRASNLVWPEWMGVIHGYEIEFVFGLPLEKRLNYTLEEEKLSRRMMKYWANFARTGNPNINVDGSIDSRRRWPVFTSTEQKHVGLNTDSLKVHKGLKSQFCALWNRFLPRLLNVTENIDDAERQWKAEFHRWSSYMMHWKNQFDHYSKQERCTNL

Compared with `O=c1c2ccccc2oc2cc(O)ccc12` [Compound 1, 3-hydroxyxanthone], `CC(C)Oc1ccc2c(=O)c3ccccc3oc2c1` [Compound 4, 3-Isopropoxy-9H-xanthen-9-one] is 1.7-fold lower in IC50: 2.39 ± 0.11 µM for the first, 1.41 ± 0.13 µM for the second. The second is the more potent here.

`CCCOc1ccc2c(=O)c3ccccc3oc2c1` [Compound 2, 3-Propoxy-9H-xanthen-9-one] and `CCCCOc1ccc2c(=O)c3ccccc3oc2c1` [Compound 3, 3-Butoxy-9H-xanthen-9-one] are within 1.5-fold of each other in IC50: 1.86 ± 0.04 µM for the first, 1.4 ± 0.14 µM for the second.

Going from `CC(C)COc1ccc2c(=O)c3ccccc3oc2c1` [Compound 5, 3-Isobutoxy-9H-xanthen-9-one] to `CC(C)CCOc1ccc2c(=O)c3ccccc3oc2c1` [Compound 6, 3-(Isopentyloxy)-9H-xanthen-9-one], the IC50 rises from 1.18 ± 0.11 µM to 1.84 ± 0.21 µM (1.6-fold).

Compared with `CC[C@H](C)COc1ccc2c(=O)c3ccccc3oc2c1` [Compound 7, (S)-3-(2-Methylbutoxy)-9H-xanthen-9-one], `C[C@H](CO)COc1ccc2c(=O)c3ccccc3oc2c1` [Compound 29, (R)-3-(3-Hydroxy-2-methylpropoxy)-9H-xanthen-9-one] is higher in IC50: 1.74 ± 0.2 µM for the first, > 3.52 µM for the second. The first is the more potent here.

Going from `CCC(CC)COc1ccc2c(=O)c3ccccc3oc2c1` [Compound 8, 3-(2-Ethylbutoxy)-9H-xanthen-9-one] to `C[C@@H](CO)COc1ccc2c(=O)c3ccccc3oc2c1` [Compound 30, (S)-3-(3-hydroxy-2-methylpropoxy)-9H-xanthen-9-one], the IC50 rises from 1.15 ± 0.19 µM to > 3.52 µM.

Compared with `CC(C)CCCOc1ccc2c(=O)c3ccccc3oc2c1` [Compound 9, 3-((4-Methylpentyl)oxy)-9H-xanthen-9-one], `COCCCOc1ccc2c(=O)c3ccccc3oc2c1` [Compound 24, 3-(3-Methoxypropoxy)-9H-xanthen-9-one] is higher in IC50: 2.07 ± 0.06 µM for the first, > 3.52 µM for the second.

`O=c1c2ccccc2oc2cc(OCC3CCC3)ccc12` [Compound 10, 3-(Cyclobutylmethoxy)-9H-xanthen-9-one] and `O=c1c2ccccc2oc2cc(OCCC3CCCCC3)ccc12` [Compound 11, 3-(2-Cyclohexylethoxy)-9H-xanthen-9-one] are within 1.5-fold of each other in IC50: 1.61 ± 0.11 µM for the first, 1.27 ± 0.13 µM for the second.

Going from `C=CCCOc1ccc2c(=O)c3ccccc3oc2c1` [Compound 12, 3-(But-3-en-1-yloxy)-9H-xanthen-9-one] to `C=CCCCOc1ccc2c(=O)c3ccccc3oc2c1` [Compound 13, 3-(Pent-4-en-1-yloxy)-9H-xanthen-9-one], the IC50 rises from 2.09 ± 0.21 µM to > 3.57 µM.

First: C=CCCCCOc1ccc2c(=O)c3ccccc3oc2c1 [Compound 14, 3-(Hex-5-en-1-yloxy)-9H-xanthen-9-one]
Second: CC(C)=CCCOc1ccc2c(=O)c3ccccc3oc2c1 [Compound 17, 3-((4-Methylpent-3-en-1-yl)oxy)-9H-xanthen-9-one]
The IC50 of the first is higher: > 3.4 µM for the first, 1.06 ± 0.12 µM for the second. The second is the more potent here.

`C=C(C)COc1ccc2c(=O)c3ccccc3oc2c1` [Compound 15, 3-((2-Methylallyl)oxy)-9H-xanthen-9-one] and `COC(=O)COc1ccc2c(=O)c3ccccc3oc2c1` [Compound 27, Methyl 2-((9-oxo-9H-xanthen-3-yl)oxy)acetate] are within 1.5-fold of each other in IC50: 1.6 ± 0.15 µM for the first, 1.28 ± 0.13 µM for the second.

First: CC(C)=CCOc1ccc2c(=O)c3ccccc3oc2c1 [Compound 16, 3-((3-Methylbut-2-en-1-yl)oxy)-9H-xanthen-9-one]
Second: CC#CCOc1ccc2c(=O)c3ccccc3oc2c1 [Compound 18, 3-(But-2-yn-1-yloxy)-9H-xanthen-9-one]
The IC50 of the first is lower: 1.86 ± 0.15 µM for the first, > 3.79 µM for the second. The first is the more potent here.

`CCC#CCOc1ccc2c(=O)c3ccccc3oc2c1` [Compound 19, 3-(Pent-2-yn-1-yloxy)-9H-xanthen-9-one] and `CCOC(=O)COc1ccc2c(=O)c3ccccc3oc2c1` [Compound 28, Ethyl 2-((9-oxo-9H-xanthen-3-yl)oxy)acetate] are within 1.5-fold of each other in IC50: 1.21 ± 0.05 µM for the first, 0.88 ± 0.15 µM for the second.

Going from `C#CC(C)Oc1ccc2c(=O)c3ccccc3oc2c1` (centres unmarked) [Compound 20, 3-(But-3-yn-2-yloxy)-9H-xanthen-9-one] to `COCOCCOc1ccc2c(=O)c3ccccc3oc2c1` [Compound 25, 3-(2-(Methoxymethoxy)ethoxy)-9H-xanthen-9-one], the IC50 falls from 2.24 ± 0.17 µM to 1.37 ± 0.12 µM (1.6-fold). The second is the more potent here.

`O=c1c2ccccc2oc2cc(OCc3ccccc3)ccc12` [Compound 21, 3-(Benzyloxy)-9H-xanthen-9-one] and `O=c1c2ccccc2oc2cc(OCCCc3ccccc3)ccc12` [Compound 22, 3-(3-Phenylpropoxy)-9H-xanthen-9-one] are within error of each other in IC50: 0.99 ± 0.19 µM for the first, 1.22 ± 0.12 µM for the second.

`O=c1c2ccccc2oc2cc(OCCCCc3ccccc3)ccc12` [Compound 23, 3-(4-Phenylbutoxy)-9H-xanthen-9-one] and `COCCOCCOc1ccc2c(=O)c3ccccc3oc2c1` [Compound 26, 3-(2-(2-Methoxyethoxy)ethoxy)-9H-xanthen-9-one] are within error of each other in IC50: 0.88 ± 0.04 µM for the first, 0.97 ± 0.06 µM for the second.

Same assay, conditions: read-out: Percentage of AChE inhibition at 1 µg/mL

`C=CCCCOc1ccc2c(=O)c3ccccc3oc2c1` [Compound 13, 3-(Pent-4-en-1-yloxy)-9H-xanthen-9-one] and `C=CCCCCOc1ccc2c(=O)c3ccccc3oc2c1` [Compound 14, 3-(Hex-5-en-1-yloxy)-9H-xanthen-9-one] cannot be ordered by inhibition at 1 µg/mL: < 50% for the first, < 50% for the second.

`CC#CCOc1ccc2c(=O)c3ccccc3oc2c1` [Compound 18, 3-(But-2-yn-1-yloxy)-9H-xanthen-9-one] and `C[C@H](CO)COc1ccc2c(=O)c3ccccc3oc2c1` [Compound 29, (R)-3-(3-Hydroxy-2-methylpropoxy)-9H-xanthen-9-one] cannot be ordered by inhibition at 1 µg/mL: < 50% for the first, < 50% for the second.

`COCCCOc1ccc2c(=O)c3ccccc3oc2c1` [Compound 24, 3-(3-Methoxypropoxy)-9H-xanthen-9-one] and `C[C@@H](CO)COc1ccc2c(=O)c3ccccc3oc2c1` [Compound 30, (S)-3-(3-hydroxy-2-methylpropoxy)-9H-xanthen-9-one] cannot be ordered by inhibition at 1 µg/mL: < 50% for the first, < 50% for the second.

What follows are molecules tested against butyrylcholinesterase (BChE) (Equus caballus, UniProt P81908) (assay: Cholinesterase inhibition activity assay). Details: read-out: BChE Percentage of inhibition at 4 µg/mL.
Format: biochemical, Equine serum

Chain of butyrylcholinesterase (BChE) (P81908 whole entry): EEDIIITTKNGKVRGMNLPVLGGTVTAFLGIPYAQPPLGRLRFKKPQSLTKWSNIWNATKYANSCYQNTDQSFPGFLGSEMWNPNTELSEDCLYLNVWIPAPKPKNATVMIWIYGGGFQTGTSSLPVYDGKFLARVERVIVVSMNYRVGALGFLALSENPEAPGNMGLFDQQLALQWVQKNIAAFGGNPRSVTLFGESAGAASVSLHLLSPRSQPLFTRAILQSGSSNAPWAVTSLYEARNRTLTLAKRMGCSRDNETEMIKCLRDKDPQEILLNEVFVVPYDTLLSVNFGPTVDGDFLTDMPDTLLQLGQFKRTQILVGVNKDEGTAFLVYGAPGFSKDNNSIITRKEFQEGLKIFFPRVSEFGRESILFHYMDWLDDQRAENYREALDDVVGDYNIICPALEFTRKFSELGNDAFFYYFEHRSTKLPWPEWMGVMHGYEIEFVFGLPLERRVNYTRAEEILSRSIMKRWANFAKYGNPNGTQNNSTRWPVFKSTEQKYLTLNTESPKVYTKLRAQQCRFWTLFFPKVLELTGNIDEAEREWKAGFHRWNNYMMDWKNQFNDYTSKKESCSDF

In order of rising inhibition at 4 µg/mL:
1. C=C(C)COc1ccc2c(=O)c3ccccc3oc2c1 [Compound 15, 3-((2-Methylallyl)oxy)-9H-xanthen-9-one]  2.33 ± 0.3%
2. CCOC(=O)COc1ccc2c(=O)c3ccccc3oc2c1 [Compound 28, Ethyl 2-((9-oxo-9H-xanthen-3-yl)oxy)acetate]  4.11 ± 0.35%
3. CC#CCOc1ccc2c(=O)c3ccccc3oc2c1 [Compound 18, 3-(But-2-yn-1-yloxy)-9H-xanthen-9-one]  4.53 ± 0.88%
4. C#CC(C)Oc1ccc2c(=O)c3ccccc3oc2c1 (centres unmarked) [Compound 20, 3-(But-3-yn-2-yloxy)-9H-xanthen-9-one]  5 ± 0.74%
5. O=c1c2ccccc2oc2cc(OCc3ccccc3)ccc12 [Compound 21, 3-(Benzyloxy)-9H-xanthen-9-one]  5.04 ± 0.7%
6. CCC#CCOc1ccc2c(=O)c3ccccc3oc2c1 [Compound 19, 3-(Pent-2-yn-1-yloxy)-9H-xanthen-9-one]  5.24 ± 0.25%
7. C=CCCOc1ccc2c(=O)c3ccccc3oc2c1 [Compound 12, 3-(But-3-en-1-yloxy)-9H-xanthen-9-one]  5.33 ± 0.17%
8. CC(C)CCOc1ccc2c(=O)c3ccccc3oc2c1 [Compound 6, 3-(Isopentyloxy)-9H-xanthen-9-one]  5.47 ± 0.61%
9. C[C@@H](CO)COc1ccc2c(=O)c3ccccc3oc2c1 [Compound 30, (S)-3-(3-hydroxy-2-methylpropoxy)-9H-xanthen-9-one]  5.48 ± 0.31%
10. O=c1c2ccccc2oc2cc(O)ccc12 [Compound 1, 3-hydroxyxanthone]  6.55 ± 0.82%
11. O=c1c2ccccc2oc2cc(OCC3CCC3)ccc12 [Compound 10, 3-(Cyclobutylmethoxy)-9H-xanthen-9-one]  7.01 ± 1.16%
12. COC(=O)COc1ccc2c(=O)c3ccccc3oc2c1 [Compound 27, Methyl 2-((9-oxo-9H-xanthen-3-yl)oxy)acetate]  7.69 ± 0.34%
13. CC(C)=CCOc1ccc2c(=O)c3ccccc3oc2c1 [Compound 16, 3-((3-Methylbut-2-en-1-yl)oxy)-9H-xanthen-9-one]  7.96 ± 1.22%
14. O=c1c2ccccc2oc2cc(OCCCCc3ccccc3)ccc12 [Compound 23, 3-(4-Phenylbutoxy)-9H-xanthen-9-one]  9.19 ± 0.55%
15. CC(C)COc1ccc2c(=O)c3ccccc3oc2c1 [Compound 5, 3-Isobutoxy-9H-xanthen-9-one]  9.78 ± 1.22%
16. COCOCCOc1ccc2c(=O)c3ccccc3oc2c1 [Compound 25, 3-(2-(Methoxymethoxy)ethoxy)-9H-xanthen-9-one]  10.3 ± 1.24%
17. COCCCOc1ccc2c(=O)c3ccccc3oc2c1 [Compound 24, 3-(3-Methoxypropoxy)-9H-xanthen-9-one]  11 ± 1.38%
18. CC(C)CCCOc1ccc2c(=O)c3ccccc3oc2c1 [Compound 9, 3-((4-Methylpentyl)oxy)-9H-xanthen-9-one]  11.8 ± 0.98%
19. CCCOc1ccc2c(=O)c3ccccc3oc2c1 [Compound 2, 3-Propoxy-9H-xanthen-9-one]  11.9 ± 1.74%
20. CCC(CC)COc1ccc2c(=O)c3ccccc3oc2c1 [Compound 8, 3-(2-Ethylbutoxy)-9H-xanthen-9-one]  12.6 ± 1.26%
21. C[C@H](CO)COc1ccc2c(=O)c3ccccc3oc2c1 [Compound 29, (R)-3-(3-Hydroxy-2-methylpropoxy)-9H-xanthen-9-one]  13.9 ± 0.96%
22. O=c1c2ccccc2oc2cc(OCCCc3ccccc3)ccc12 [Compound 22, 3-(3-Phenylpropoxy)-9H-xanthen-9-one]  15.5 ± 1.93%
23. C=CCCCCOc1ccc2c(=O)c3ccccc3oc2c1 [Compound 14, 3-(Hex-5-en-1-yloxy)-9H-xanthen-9-one]  16.4 ± 1.34%
24. CCCCOc1ccc2c(=O)c3ccccc3oc2c1 [Compound 3, 3-Butoxy-9H-xanthen-9-one]  17.6 ± 1.89%
25. COCCOCCOc1ccc2c(=O)c3ccccc3oc2c1 [Compound 26, 3-(2-(2-Methoxyethoxy)ethoxy)-9H-xanthen-9-one]  17.8 ± 1.6%
26. CC(C)Oc1ccc2c(=O)c3ccccc3oc2c1 [Compound 4, 3-Isopropoxy-9H-xanthen-9-one]  20.7 ± 1.75%
27. C=CCCCOc1ccc2c(=O)c3ccccc3oc2c1 [Compound 13, 3-(Pent-4-en-1-yloxy)-9H-xanthen-9-one]  20.9 ± 3.07%
28. CC(C)=CCCOc1ccc2c(=O)c3ccccc3oc2c1 [Compound 17, 3-((4-Methylpent-3-en-1-yl)oxy)-9H-xanthen-9-one]  20.9 ± 3.03%
29. O=c1c2ccccc2oc2cc(OCCC3CCCCC3)ccc12 [Compound 11, 3-(2-Cyclohexylethoxy)-9H-xanthen-9-one]  24.3 ± 2.29%
30. CC[C@H](C)COc1ccc2c(=O)c3ccccc3oc2c1 [Compound 7, (S)-3-(2-Methylbutoxy)-9H-xanthen-9-one]  24.8 ± 1.96%

These molecules were tested against AChE (Electrophorus electricus, UniProt O42275) (assay: AChE enzyme kinetic study). Details: substrate ATCI 0.43-6.90 mM; Lineweaver-Burk plot.
Format: biochemical

Chain of AChE (O42275 24-633): as the sequence (O42275 24-633) above

`O=c1c2ccccc2oc2cc(OCCCCc3ccccc3)ccc12` [Compound 23, 3-(4-Phenylbutoxy)-9H-xanthen-9-one] was tested, and the “Mode of AChE inhibition” value was “mixed inhibition mechanism; also recorded: mixed-mode inhibition”.
`CCOC(=O)COc1ccc2c(=O)c3ccccc3oc2c1` [Compound 28, Ethyl 2-((9-oxo-9H-xanthen-3-yl)oxy)acetate] was tested, and the “Mode of AChE inhibition” value was “mixed inhibition mechanism; also recorded: mixed-mode inhibition”.
